Data: US4386094A, “4-Lower alkyl-3-phenoxypyridine-1-oxide and a method for its production” (priority 1980, dated 1983)
Where two headings read alike, the source gives them in different places.

Assays:
[1] = test system: Pentylenetetrazol (Metrazol) seizure; experiment: sc Met--Subcutaneous Pentylenetetrazol (Metrazol) Seizure Threshold Test, rats; format: in vivo; conditions: oral
Method: (§1) The utility of the aforementioned compound as an anticonvulsant is determined by generating a compound profile using three tests. The tests employed are described in Epilepsia 19 (1978) 409-428 which is incorporated by reference.
(§2) The animal is observed for 30 minutes. Failure to observe even a threshold seizure (a single episode of clonic spasms of at least 5 sec duration) is defined as protection and the results are expressed as: […]
(§3) number of animals protected/number of animals tested.

[2] = mouse, in vivo, po; cited from earlier work
[3] = Rotorod toxicity test (Tox), mice; format: in vivo, male Carworth Farms No. 1 mice
Method: The Rotorod test is used to evaluate neurotoxicity. The animal is placed on a 1 inch diameter knurled plastic rod rotating at 6 rpm. Normal mice can remain on a rod rotating at this speed indefinitely. Neurologic toxicity is defined as the failure of the animal to remain on the rod for 1 minute, and is expressed as:

[4] = rat, in vivo, po; cited from earlier work
[5] = test system: Maximal electroshock seizures; experiment: MES--Maximal Electroshock Seizure Test, rats; format: in vivo; conditions: Rattus norvegicus, oral
Method: The utility of the aforementioned compound as an anticonvulsant is determined by generating a compound profile using three tests. The tests employed are described in Epilepsia 19 (1978) 409-428 which is incorporated by reference. Maximal electroshock seizures are elicited with a 60 cycle alternating current of 50 mA intensity (5-7 times that necessary to elicit minimal electroshock seizures) delivered for 0.2 sec via corneal electrodes. A drop of 0.9% saline is instilled in the eye prior to application of the electrodes in order to […]. Abolition of the hind limb tonic extension component of the seizure is defined as protection and results are expressed as: number of animals protected/number of animals tested.

[6] = test system: Maximal electroshock seizures; experiment: MES--Maximal Electroshock Seizure Test, mice; format: in vivo, male Carworth Farms No. 1 mice; conditions: Mus musculus
Source text: Maximal electroshock seizures are elicited with a 60 cycle alternating current of 50 mA intensity (5-7 times that necessary to elicit minimal electroshock seizures) delivered for 0.2 sec via corneal electrodes. A drop of 0.9% saline is instilled in the eye prior to application of the electrodes in order to prevent the death of the animal. Abolition of the hind limb tonic extension component of the seizure is defined as protection and results are expressed as:

[7] = test system: Pentylenetetrazol (Metrazol) seizure; experiment: sc Met--Subcutaneous Pentylenetetrazol (Metrazol) Seizure Threshold Test, mice; format: in vivo, male Carworth Farms No. 1 mice; conditions: for ED50 sc Met: intraperitoneal
Method: as §1
The tests were performed by the National Institute of Neurological and Communicative Disorders and Stroke and used male Carworth Farms No. 1 mice. The compounds are employed at at least 3 dose levels (30, 100, 300 mg/kg) in the following three tests.
sc Met--Subcutaneous Pentylenetetrazol (Metrazol®) Seizure Threshold Test
as §2, §3

[8] = test system: Bicuculline; experiment: Bicuculline test, mice; format: in vivo
[9] = test system: Strychnine; experiment: Strychnine test, mice; format: in vivo; conditions: intraperitoneal
[10] = Rotorod toxicity test (Tox), rats; format: in vivo; conditions: for TD50: rat, in vivo, po
[11] = test system: Picrotoxin; experiment: Picrotoxin test, mice; format: in vivo; conditions: intraperitoneal

SMILES: CCC1(c2ccccc2)NC(=O)N(C)C1=O (stereo not drawn) [MEPHENYTOIN]
- ED50 ([1]; Rattus norvegicus): 105 mg/kg
- ROTOROD TD50 [2]: 97.0 mg/kg
- TD50 ([3]; intraperitoneal, mice): 153.82 mg/kg
- ROTOROD TD50 [4]: 143 mg/kg
- ED50 [5]: 10 mg/kg
- ED50 ([6]; oral, read-out: MES-ED50): 37 mg/kg
- ED50 ([7]; Mus musculus, oral): 53 mg/kg
- ED50 ([8]; Mus musculus, ip, read-out: ED50 Bicuculline): 124 mg/kg
- Max. Prot. (Strychnine) ([9]; at 70-150 mg/kg): 50%

SMILES: Cc1cc[n+]([O-])cc1Oc1ccccc1 [4-METHYL-3-PHENOXYPYRIDINE-1-OXIDE, 4-methyl-3-phenoxypyridine-1-oxide]
- sc Met-ED50 [1]: Potentiates
- TD50 ([3]; mouse, in vivo, ip): 76.2 mg/kg
- TD50 ([3]; mouse, in vivo, po): 296 mg/kg
- ED50 [5]: 11.2 mg/kg
- ED50 ([6]; ip, intraperitoneal, read-out: ED50 MES): 23.2 mg/kg
- ED50 ([6]; oral, read-out: MES-ED50): 85.3 mg/kg
- ED50 sc Met [7]: Potentiates
- sc Met-ED50 ([7]; oral): Potentiates
- TD50 [10]: 76.1 mg/kg
- ED50 Bicuculline ([8]; intraperitoneal, mice): Potentiates
- ED50 Strychnine [9]: Ineffective
- ED50 Picrotoxin [11]: Potentiates

SMILES: NC(=O)N1c2ccccc2C=Cc2ccccc21 [CARBAMAZEPINE]
- sc Met-ED50 [1]: Variable
- ED50 [5]: 8.5 mg/kg
- ED50 sc Met [7]: Potentiates
- ROTOROD TD50 ([10]; oral, rats): 813.06 mg/kg
- Max. Prot. (Bicuculline) ([8]; intraperitoneal, mice, at 50-130 mg/kg): 62.5%

SMILES: O=C1NC(=O)C(c2ccccc2)(c2ccccc2)N1 [PHENYTOIN]
- sc Met-ED50 [1]: Ineffective
- ED50 sc Met [7]: Potentiates
- sc Met-ED50 ([7]; oral): Ineffective
- TD50 [10]: > 3000 mg/kg
- ED50 Bicuculline ([8]; intraperitoneal, mice): Potentiates
- Max. Prot. (Strychnine) ([9]; at 55-100 mg/kg): 50%
- ED50 Picrotoxin [11]: Potentiates
